# US7803801B2, “Aminopyridine compounds having Syk inhibitory activity” (Japan Tobacco, Inc., priority 2005, dated 2010)
# Structures can show the parent of a compound that is named as a salt.
# Molecular target: GST-Syk Full Protein (human) (Homo sapiens, UniProt P43405)
# Experiment: Syk kinase inhibition test (HTRF method)
# Type: biochemical
# Details: HTRF, 100 μM ATP, 30 min room temperature, average; read-out: sykHTRF ave IC50
# Method in brief: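 HTRF read-out: after EDTA termination and 1 h with XL665-streptavidin and Eu-anti-phosphotyrosine, the 665/620 nm ratio was measured. The reaction ran 30 min at 20–25 °C with final 6.4 nM human GST-Syk, 250 nM biotinylated peptide, 100 μM ATP, pH 7.0 HEPES buffer, 2% DMSO.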
row,IC50 [nM],Structure (SMILES)
1,> 1000,CNC(=O)c1nc([C@H](C)NC(C)=O)sc1-c1cccc(Nc2cc(C)ccn2)n1 [Compound A-118]
2,> 1000,CC(=O)N[C@@H](C)c1nc(C(=O)O)c(-c2cccc(Nc3cc(C)ccn3)n2)s1 [Compound A-109]
3,100 to 1000,CCOC(=O)Cc1ccnc(Nc2cccc(-c3cnc([C@H](C)NC(C)=O)s3)n2)c1 [Compound A-329]
4,< 100,"Cc1ccnc(Nc2cccc(-c3cnc(N4CCC(C(C)(C)C(=O)O)CC4)s3)n2)c1 [Compound A-18, 2-methyl-2-(1-{5-[6-(4-methylpyridin-2-ylamino)pyridin-2-yl]thiazol-2-yl}piperidin-4-yl)propionic acid]"

# Same assay, conditions: Tables 1-x, compounds A; read-out: sykHTRF ave IC50
row,Structure (SMILES),IC50 [nM]
1,Cc1ccnc(Nc2cccc(-c3cnc(N(C)C(C(=O)NCC(F)(F)F)C(C)C)s3)n2)c1 (stereo not drawn) [Compound A-676],100 to 1000
2,COC(=O)NCCN(c1ncc(-c2cccc(Nc3cc(C)ccn3)n2)s1)C1CCN(C(C)=O)CC1 [Compound A-522],100 to 1000
3,Cc1ccnc(Nc2cccc(-c3cnc(N(CC(N)=O)C4CCCCC4)s3)n2)c1 [Compound A-669],100 to 1000
4,COc1ccc(C)cc1Nc1cccc(-c2cnc(N3CCC(CC(=O)O)CC3)s2)n1 [Compound A-708],100 to 1000
5,"C=CCN(CC=C)c1ncc(-c2cccc(Nc3cc(C)ccn3)n2)s1 [Compound A-507, N,N-diallyl-N-{5-[6-(4-methylpyridin-2-ylamino)pyridin-2-yl]thiazol-2-yl}amine]",< 100
6,CC(=O)N1CCC(N(CCNC(=O)N(C)C)c2ncc(-c3cccc(Nc4cc(C)ccn4)n3)s2)CC1 [Compound A-523],100 to 1000
7,"CC(=CC(=O)O)CCCN(C)c1ncc(-c2cccc(Nc3cc(C)ccn3)n2)s1 [Compound A-656, 3-methyl-6-(N-methyl-N-{5-[6-(4-methylpyridin-2-ylamino)pyridin-2-yl]thiazol-2-yl}amino)hex-2-enoic acid dihydrochloride]",< 100
8,"Cc1ccnc(Nc2cccc(-c3cnc(N(CCCCCO)C(C)C)s3)n2)c1 [Compound A-678, 5-(N-isopropyl-N-{5-[6-(4-methylpyridin-2-ylamino)pyridin-2-yl]thiazol-2-yl}amino)pentan-1-ol]",< 100
9,Cc1cccc(Nc2cccc(-c3cnc(N4CCC(CC(=O)O)CC4)s3)n2)n1 [Compound A-628],100 to 1000
10,O=C(O)CC1CCN(c2ncc(-c3cccc(Nc4ncccn4)n3)s2)CC1 [Compound A-679],100 to 1000
11,CC(=O)NCCN(c1ncc(-c2cccc(Nc3cc(C)ccn3)n2)s1)C1CCN(C(C)=O)CC1 [Compound A-521],100 to 1000
12,"Cc1ccnc(Nc2cccc(-c3cnc(N(CC(N)=O)C(C)C)s3)n2)c1 [Compound A-663, 2-(N-isopropyl-N-{5-[6-(4-methylpyridin-2-ylamino)pyridin-2-yl]thiazol-2-yl}amino)acetamide]",< 100
13,CN(CCO)c1ncc(-c2cccc(Nc3cc(CC(=O)O)ccn3)n2)s1 [Compound A-550],100 to 1000
14,"CC(=CC(=O)O)CCCN(C)c1ncc(-c2cccc(Nc3cc(C(F)(F)F)ccn3)n2)s1 [Compound A-655, 3-methyl-6-(N-methyl-N-{5-[6-(4-trifluoromethylpyridin-2-ylamino)pyridin-2-yl]thiazol-2-yl}amino)hex-2-enoic acid dihydrochloride]",< 100
15,Cc1ccnc(Nc2cccc(-c3cnc(N(C)C4CCN(C(=O)C5CCC(O)CC5)CC4)s3)n2)c1 (stereo not drawn) [Compound A-672],100 to 1000

# Other lines, results leading:
row,IC50 [nM],Structure (SMILES)
1,100 to 1000,Cc1ccnc(Nc2cccc(-c3cnc(N4CCC(C(=O)NC(C)(C)CO)CC4)s3)n2)c1 [Compound A-455]
2,100 to 1000,Cc1ccnc(Nc2cccc(-c3cnc(N4CCC(C(=O)N(CCO)CCO)CC4)s3)n2)c1 [Compound A-449]
3,< 100,"COCC1CCCN(c2ncc(-c3cccc(Nc4cc(C)ccn4)n3)s2)C1 (stereo not drawn) [Compound A-481, N-{6-[2-(3-methoxymethylpiperidin-1-yl)thiazol-5-yl]pyridin-2-yl}-N-(4-methylpyridin-2-yl)amine]"
4,100 to 1000,Cc1ccnc(Nc2cccc(-c3cnc(CSc4ccc(C(=O)O)cc4)s3)n2)c1 [Compound A-619]
5,< 100,"Cc1ccnc(Nc2cccc(-c3cnc(N4CCC(CC(=O)NS(C)(=O)=O)CC4)s3)n2)c1 [Compound A-633, N-[2-(1-{5-[6-(4-methylpyridin-2-ylamino)pyridin-2-yl]thiazol-2-yl}piperidin-4-yl)acetyl]methanesulfonamide]"
6,100 to 1000,NC(=O)[C@@H]1CCCN1c1ncc(-c2cccc(Nc3ccccn3)n2)s1 [Compound A-690]
7,100 to 1000,Cc1ccc(Nc2cccc(-c3cnc(N4CCC(CC(=O)O)CC4)s3)n2)nc1 [Compound A-629]
8,100 to 1000,CNC(=O)CN(C)Cc1ncc(-c2cccc(Nc3cc(C)ccn3)n2)s1 [Compound A-687]
9,100 to 1000,Cc1ccnc(Nc2cccc(-c3cnc(N4CCC(NC(=O)C5CCOCC5)CC4)s3)n2)c1 [Compound A-661]
10,< 100,"Cc1ccnc(Nc2cccc(-c3cnc(N4CCCC(CCC(=O)O)C4)s3)n2)c1 (stereo not drawn) [Compound A-704, 3-(1-{5-[6-(4-methylpyridin-2-ylamino)pyridin-2-yl]thiazol-2-yl}piperidin-3-yl)propionic acid]"
11,100 to 1000,O=C(O)Cc1ccnc(Nc2cccc(-c3cnc(N4CC[C@@H](O)C4)s3)n2)c1 [Compound A-557]
12,< 100,"CCc1ccnc(Nc2cccc(-c3cnc(N4CCC(CC(=O)O)CC4)s3)n2)c1 [Compound A-692, (1-{5-[6-(4-ethylpyridin-2-ylamino)pyridin-2-yl]thiazol-2-yl}piperidin-4-yl)acetic acid dihydrochloride]"
13,100 to 1000,Cc1ccnc(Nc2cccc(-c3cnc(CN(C)CC(=O)NCC(C)(C)C)s3)n2)c1 [Compound A-689]
14,< 100,"Cc1ccnc(Nc2cccc(-c3cnc(N4CCC(=C(F)C(=O)O)CC4)s3)n2)c1 [Compound A-631, fluoro-(1-{5-[6-(4-methylpyridin-2-ylamino)pyridin-2-yl]thiazol-2-yl}piperidin-4-ylidene)acetic acid]"
15,100 to 1000,Cc1ccnc(Nc2cccc(-c3cnc(N4CCC[C@H]4C(=O)N4CCC(O)CC4)s3)n2)c1 [Compound A-659]
16,< 100,"Cc1ccnc(Nc2cccc(-c3cnc(N4CCCC(CCCCC(=O)O)C4)s3)n2)c1 (stereo not drawn) [Compound A-719, 5-(1-{5-[6-(4-methylpyridin-2-ylamino)pyridin-2-yl]thiazol-2-yl}piperidin-3-yl)pentanoic acid dihydrochloride]"
17,100 to 1000,Cc1ccnc(Nc2cccc(-c3cnc(N4CCCc5ccc(C(=O)O)cc54)s3)n2)c1 [Compound A-621]
18,< 100,"Cc1ccnc(Nc2cccc(-c3cnc(N4CCc5c(CCC(=O)O)cccc5C4)s3)n2)c1 [Compound A-642, 3-(2-{5-[6-(4-methylpyridin-2-ylamino)pyridin-2-yl]thiazol-2-yl}-1,2,3,4-tetrahydroisoquinolin-5-yl)propionic acid]"
19,< 100,"Cc1ccnc(Nc2cccc(-c3cnc(NCCN4CCOCC4)s3)n2)c1 [Compound A-695, N-{5-[6-(4-methylpyridin-2-ylamino)pyridin-2-yl]thiazol-2-yl}-N-(2-morpholin-4-ylethyl)amine]"
20,< 100,"Cc1ccnc(Nc2cccc(-c3cnc(N(C)c4ccc(CCC(=O)O)cc4)s3)n2)c1 [Compound A-639, 3-[4-(N-methyl-N-{5-[6-(4-methylpyridin-2-ylamino)pyridin-2-yl]thiazol-2-yl}amino)phenyl]propionic acid]"
21,100 to 1000,Cc1ccnc(Nc2cccc(-c3cnc(N4CCNCC4)s3)n2)c1 [Compound A-406]
22,< 100,"Cc1ccnc(Nc2cccc(-c3cnc(N(C)C4CCN(C(=O)NCCO)CC4)s3)n2)c1 [Compound A-705, N-(2-hydroxyethyl)-4-(N′-methyl-N′-{5-[6-(4-methylpyridin-2-ylamino)pyridin-2-yl]thiazol-2-yl}amino)piperidine-1-carboxamide]"
23,100 to 1000,Cc1ccnc(Nc2cccc(-c3cnc(N4CCC[C@H]4C(=O)N[C@@H](C)C(=O)O)s3)n2)c1 [Compound A-566]
24,100 to 1000,Cc1ccnc(Nc2cccc(-c3cnc(N4CCC(NC(=O)C5CCC(O)CC5)CC4)s3)n2)c1 (stereo not drawn) [Compound A-662]
25,< 100,"Cc1ccnc(Nc2cccc(-c3cnc(CN4CCC(C(N)=O)CC4)s3)n2)c1 [Compound A-685, 1-{5-[6-(4-methylpyridin-2-ylamino)pyridin-2-yl]thiazol-2-ylmethyl}piperidine-4-carboxamide]"
26,100 to 1000,Cc1ccnc(Nc2cccc(-c3cnc(N4CCC[C@H]4C(=O)NCC(C)(C)C)s3)n2)c1 [Compound A-660]

# Same assay, conditions: Tables 2-x, thiophene compounds B; read-out: sykHTRK ave IC50
row,Structure (SMILES),IC50 [nM]
1,"Cc1ccnc(Nc2cccc(-c3ccc(CN(Cc4ccc(C(=O)O)cc4)C(=O)CO)s3)n2)c1 [Compound B-128, 4-[(N-(2-hydroxyacetyl)-N-{5-[6-(4-methylpyridin-2-ylamino)pyridin-2-yl]thiophen-2-ylmethyl}amino)methyl]benzoic acid]",< 100
2,CC(=O)c1ccc(-c2cccc(N(C(C)=O)c3cc(C)ccn3)n2)s1 [Compound B-89],> 1000
3,"CC(=O)N(Cc1ccc(-c2cccc(Nc3cc(C)ccn3)n2)s1)C[C@H]1CC[C@H](C(=O)O)CC1 [Compound B-120, trans-4-[(N-acetyl-N-{5-[6-(4-methylpyridin-2-ylamino)pyridin-2-yl]thiophen-2-ylmethyl}amino)methyl]cyclohexanecarboxylic acid]",< 100

# Further lines, results first:
row,IC50 [nM],Structure (SMILES)
1,100 to 1000,C/C(=C\C(=O)O)c1ccc(-c2cccc(Nc3cc(C)ccn3)n2)s1 [Compound B-114]
2,< 100,"CC(=O)N(Cc1ccc(C(=O)O)cc1)Cc1ccc(-c2cccc(Nc3cc(C)ccn3)n2)s1 [Compound B-119, 4-[(N-acetyl-N-{5-[6-(4-methylpyridin-2-ylamino)pyridin-2-yl]thiophen-2-ylmethyl}amino)methyl]benzoic acid]"
3,100 to 1000,Cc1ccnc(Nc2cccc(-c3ccc(COc4ccc(C(=O)O)cc4)s3)n2)c1 [Compound B-105]
